Experimental data reported in patent US12024508B2 (priority 2018, dated 2024).

Assays:
[1] = Toxicity (cell number) in HeLa cells; conditions: human
[2] = Toxicity (cell number) in Hep2 cells; conditions: human
[3] = system: hCMV-ANCHOR; assay: Antiviral activity, MRC5 cells with hCMV-ANCHOR; type: cell-based; conditions: for Selectivity index: CC50/CI50; for IC50: Human betaherpesvirus 5, 144 h, MOI 1, fixation at 6 days, read-out: CI50 (the source's name)
[4] = system: Shiga toxin (Stx-1 and/or Stx-2); type: cell-based, E. coli
[5] = system: VACV-ANCHOR; assay: microbe, parasite or virus in culture; type: cell-based, Vaccinia virus; conditions: for Selectivity index: HeLa/VacV, CC50/CI50; for IC50: Orthopoxvirus vaccinia, HeLa, 48 h, read-out: CI50
[6] = system: Myxomavirus T1-ANCHOR; assay: Antiviral activity, RK13 cells with Myxomavirus T1-ANCHOR; type: cell-based; conditions: for Selectivity index: RK13/MyxV T1, CC50/CI50; for IC50: RK-13, 144 h, RK13/MyxV T1, MOI 0.05, fixation at 6 days, read-out: CI50 (the source's name)
[7] = Toxicity (cell number) in MRC5 cells; conditions: human
[8] = Toxicity (cell number) in RK13 cells; conditions: rabbit
[9] = system: RSV; assay: Antiviral activity, Hep2 cells with RSV; type: cell-based; conditions: for Selectivity index: CC50/CI50; for IC50: human respiratory syncytial virus, HEp-2, MOI 0.2, fixation at 72 hours, read-out: CI50 (the source's name)

Row | SMILES | CC50 at 72 h [1] | CC50 at 72 h [2] | Selectivity index [3] | IC50 [3] | IC50 [4] | Selectivity index [5] | IC50 [5] | Selectivity index [6] | IC50 [6] | CC50 at 72 h [7] | CC50 at 72 h [8] | Selectivity index [9] | IC50 [9]
1 | Cc1nc(-c2ccc(C3N(C)c4ccc(F)cc4C(=O)N3c3ccccc3N)s2)cs1 (stereo not shown) [Compound 1] | > 50000 nM | > 50000 nM | 21,500 | < 1 nM | 14.2 nM | 47,619 | 1.05 nM | 5,181 | 1.44 nM | 21500 nM | 7460 nM |  | 
2 | Cc1nc(-c2ccc(C3N(C)c4ccc(F)cc4C(=O)N3c3ccccc3O)s2)cs1 (stereo not shown) [Compound 2] | 32300 nM | 37600 nM | 21,000 | < 1 nM | 20 nM | 8,947 | 3.61 nM |  | 14.2 nM | 21000 nM |  | 1,880 | 20 nM
3 | Cc1nc(-c2ccc(C3N(C)c4ccc(F)cc4C(=O)N3c3cccc(O)c3)s2)cs1 (stereo not shown) [Compound 3] |  |  |  |  | 55 nM |  |  |  |  |  |  |  | 
4 | Cc1nc(-c2ccc(C3N(C)c4ccccc4C(=O)N3c3ccccc3N)s2)cs1 (stereo not shown) [Compound 4] |  |  |  |  | 78.6 nM |  |  |  |  |  |  |  | 
5 | Cc1nc(-c2ccc(C3N(C)c4ccc(F)cc4C(=O)N3c3ccccc3S(N)(=O)=O)s2)cs1 (stereo not shown) [Compound 5] |  |  |  |  | 35 nM |  |  |  |  |  |  |  | 
6 | Cc1nc(-c2ccc(C3N(C)c4ccc(F)cc4C(=O)N3c3ccc(O)cc3)s2)cs1 (stereo not shown) [Compound 6] | 20400 nM | 25600 nM | 59 | 281 nM | 483 nM | 32 | 628 nM | 2 | 5800 nM | 16700 nM | 12900 nM | 12 | 2200 nM
7 | Cc1nc(-c2ccc(C3N(C)c4ccc(F)cc4C(=O)N3c3cccc(O)c3O)s2)cs1 (stereo not shown) [Compound 7] |  |  |  |  | 41 nM |  |  |  |  |  |  |  | 
8 | Cc1nc(-c2ccc(C3N(C)c4ccc(F)cc4C(=O)N3c3ccccc3)s2)cs1 (stereo not shown) [Retro-2.1] | > 50000 nM | > 50000 nM | 4,310 | 11.6 nM | 100 nM | 1,323 | 37.8 nM | 45 | 74.5 nM | > 50000 nM | 3350 nM | 309 | 162 nM
